Molecules are shown by their SMILES.

The source of these data is ChEMBL document CHEMBL5465560, “Selectivity Literature for EUbOPEN Chemogenomic Library” (2024).

In test [1] the target is T1, Serine/threonine-protein kinase Nek11 (Homo sapiens) (UniProt Q8NG66).
T1 sequence (whole entry): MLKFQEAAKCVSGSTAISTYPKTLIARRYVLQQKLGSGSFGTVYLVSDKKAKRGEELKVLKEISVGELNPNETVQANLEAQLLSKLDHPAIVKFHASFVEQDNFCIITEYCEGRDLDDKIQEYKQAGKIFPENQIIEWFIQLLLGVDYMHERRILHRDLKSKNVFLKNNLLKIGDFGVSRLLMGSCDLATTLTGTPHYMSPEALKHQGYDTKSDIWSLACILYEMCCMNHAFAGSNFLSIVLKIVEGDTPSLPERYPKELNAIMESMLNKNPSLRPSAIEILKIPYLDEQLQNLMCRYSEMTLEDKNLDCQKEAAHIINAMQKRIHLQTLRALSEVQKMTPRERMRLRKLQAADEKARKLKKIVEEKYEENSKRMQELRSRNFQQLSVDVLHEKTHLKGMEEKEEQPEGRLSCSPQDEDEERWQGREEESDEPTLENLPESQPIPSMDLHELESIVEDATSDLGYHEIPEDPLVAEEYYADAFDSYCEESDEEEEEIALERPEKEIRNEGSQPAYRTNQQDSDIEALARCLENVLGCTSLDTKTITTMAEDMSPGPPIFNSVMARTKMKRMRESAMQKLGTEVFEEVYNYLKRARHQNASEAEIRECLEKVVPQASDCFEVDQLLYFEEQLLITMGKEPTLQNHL
The experiment in a line: Selectivity interaction (KinomeScan (DiscoverX)) EUB0000666a NEK11. The settings on record: at 10 µM.

For test [2], the target named is T2, Serine/threonine-protein kinase Sgk1 (Homo sapiens) (UniProt O00141).
T2 sequence (whole entry): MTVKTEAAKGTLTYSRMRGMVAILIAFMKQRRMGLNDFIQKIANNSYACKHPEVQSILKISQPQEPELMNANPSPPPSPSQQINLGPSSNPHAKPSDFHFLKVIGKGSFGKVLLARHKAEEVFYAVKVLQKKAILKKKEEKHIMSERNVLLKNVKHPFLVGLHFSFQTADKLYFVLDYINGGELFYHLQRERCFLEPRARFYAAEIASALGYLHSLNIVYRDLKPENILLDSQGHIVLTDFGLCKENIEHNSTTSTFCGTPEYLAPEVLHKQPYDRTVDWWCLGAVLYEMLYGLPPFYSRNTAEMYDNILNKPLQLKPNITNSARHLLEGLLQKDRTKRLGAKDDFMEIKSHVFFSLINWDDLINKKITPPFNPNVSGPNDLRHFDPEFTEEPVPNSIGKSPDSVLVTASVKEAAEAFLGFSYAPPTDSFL
The experiment in a line: Selectivity interaction (SelectScreen profiling (Invitrogen)) EUB0000607a SGK1. The settings on record: at 2 µM.

In test [3] the target is T3, Bone morphogenetic protein receptor type-2 (Homo sapiens) (UniProt Q13873).
T3 sequence (whole entry): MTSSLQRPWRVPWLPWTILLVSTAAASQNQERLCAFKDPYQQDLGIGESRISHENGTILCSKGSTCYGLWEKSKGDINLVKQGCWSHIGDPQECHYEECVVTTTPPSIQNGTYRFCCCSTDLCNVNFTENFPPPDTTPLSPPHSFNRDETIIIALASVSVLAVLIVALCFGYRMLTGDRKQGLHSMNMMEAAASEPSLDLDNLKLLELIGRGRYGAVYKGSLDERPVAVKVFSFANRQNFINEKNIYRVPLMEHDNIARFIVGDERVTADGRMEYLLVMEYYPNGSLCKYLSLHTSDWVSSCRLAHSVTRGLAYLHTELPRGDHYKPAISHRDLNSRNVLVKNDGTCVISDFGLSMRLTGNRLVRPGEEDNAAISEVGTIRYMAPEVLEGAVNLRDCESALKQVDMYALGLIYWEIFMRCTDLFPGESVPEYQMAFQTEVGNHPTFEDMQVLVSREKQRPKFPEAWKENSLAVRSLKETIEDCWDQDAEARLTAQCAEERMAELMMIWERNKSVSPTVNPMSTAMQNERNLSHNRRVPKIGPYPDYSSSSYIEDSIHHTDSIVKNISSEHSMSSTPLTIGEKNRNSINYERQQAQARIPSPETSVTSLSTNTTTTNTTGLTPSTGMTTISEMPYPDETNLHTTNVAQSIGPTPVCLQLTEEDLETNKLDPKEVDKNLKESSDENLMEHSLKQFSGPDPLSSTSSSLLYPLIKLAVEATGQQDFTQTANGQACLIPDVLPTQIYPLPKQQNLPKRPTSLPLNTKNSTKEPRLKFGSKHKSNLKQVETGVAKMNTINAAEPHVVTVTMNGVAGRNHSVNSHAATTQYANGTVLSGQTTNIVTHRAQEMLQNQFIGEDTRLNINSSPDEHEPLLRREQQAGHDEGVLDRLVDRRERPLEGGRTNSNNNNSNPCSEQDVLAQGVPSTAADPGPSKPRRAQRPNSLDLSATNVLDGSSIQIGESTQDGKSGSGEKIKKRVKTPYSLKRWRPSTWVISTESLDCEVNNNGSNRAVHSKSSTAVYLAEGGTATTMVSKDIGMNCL
The experiment in a line: Selectivity interaction (KinomeScan (DiscoverX)) EUB0000045b BMPR2.

Test [4] has as its target Calcium/calmodulin-dependent protein kinase kinase 2 (Homo sapiens) (UniProt Q96RR4). The test is described as follows: Selectivity interaction (KinomeScan (DiscoverX)) EUB0001049a CAMKK2. As to conditions: at 1 µM.
Test [5] addresses BDNF/NT-3 growth factors receptor (Homo sapiens) (UniProt Q16620). The test is described as follows: Selectivity interaction (KinomeScan (DiscoverX)) EUB0001049a NTRK2. The settings on record: at 1 µM.
Test [6] concerns the target Casein kinase I isoform gamma-3 (Homo sapiens) (UniProt Q9Y6M4). The experiment in a line: Selectivity interaction (KinomeScan (DiscoverX)) EUB0000229b CSNK1G3. The settings on record: at 10 µM.

Sequence of BDNF/NT-3 growth factors receptor (Homo sapiens) (Q16620 32-822 limits assumed): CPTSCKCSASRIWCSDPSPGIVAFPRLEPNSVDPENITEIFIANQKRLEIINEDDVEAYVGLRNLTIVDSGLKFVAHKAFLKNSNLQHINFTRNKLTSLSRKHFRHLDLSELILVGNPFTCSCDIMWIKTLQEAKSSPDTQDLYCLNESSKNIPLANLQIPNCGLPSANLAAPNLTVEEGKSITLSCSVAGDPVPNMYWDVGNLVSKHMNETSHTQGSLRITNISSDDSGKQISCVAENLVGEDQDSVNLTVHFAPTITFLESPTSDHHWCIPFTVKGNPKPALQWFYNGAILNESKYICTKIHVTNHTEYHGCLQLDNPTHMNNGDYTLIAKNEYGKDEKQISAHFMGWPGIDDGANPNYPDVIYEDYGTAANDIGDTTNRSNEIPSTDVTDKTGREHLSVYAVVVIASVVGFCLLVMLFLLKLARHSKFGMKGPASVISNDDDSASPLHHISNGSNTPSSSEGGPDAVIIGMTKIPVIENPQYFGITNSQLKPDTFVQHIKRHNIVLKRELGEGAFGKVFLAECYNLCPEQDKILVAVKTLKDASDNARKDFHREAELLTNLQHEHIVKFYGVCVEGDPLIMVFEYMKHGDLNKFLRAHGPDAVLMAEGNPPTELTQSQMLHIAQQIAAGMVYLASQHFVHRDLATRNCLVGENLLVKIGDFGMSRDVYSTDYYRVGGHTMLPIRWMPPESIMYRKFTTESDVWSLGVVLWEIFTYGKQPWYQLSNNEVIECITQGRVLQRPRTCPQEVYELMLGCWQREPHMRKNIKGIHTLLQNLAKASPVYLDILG
Sequence of Calcium/calmodulin-dependent protein kinase kinase 2 (Homo sapiens) (Q96RR4 2-588 limits assumed): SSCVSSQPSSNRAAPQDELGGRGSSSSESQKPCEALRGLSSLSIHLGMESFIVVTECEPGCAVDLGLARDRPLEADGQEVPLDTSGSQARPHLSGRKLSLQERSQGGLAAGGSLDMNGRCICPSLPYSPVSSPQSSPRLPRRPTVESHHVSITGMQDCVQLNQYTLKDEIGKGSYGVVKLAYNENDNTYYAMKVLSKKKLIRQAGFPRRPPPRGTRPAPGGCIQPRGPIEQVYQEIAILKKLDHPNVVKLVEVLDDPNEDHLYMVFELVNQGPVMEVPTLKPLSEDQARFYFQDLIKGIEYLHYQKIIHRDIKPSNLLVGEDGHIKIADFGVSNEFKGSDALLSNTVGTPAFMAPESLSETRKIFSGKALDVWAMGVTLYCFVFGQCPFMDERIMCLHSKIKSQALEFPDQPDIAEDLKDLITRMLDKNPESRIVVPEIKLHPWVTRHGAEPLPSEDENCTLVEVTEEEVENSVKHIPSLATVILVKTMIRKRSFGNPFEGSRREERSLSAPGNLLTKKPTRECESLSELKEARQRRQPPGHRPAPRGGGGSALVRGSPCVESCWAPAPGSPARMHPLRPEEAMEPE
Sequence of Casein kinase I isoform gamma-3 (Homo sapiens) (Q9Y6M4 whole entry, looked up, canonical isoform): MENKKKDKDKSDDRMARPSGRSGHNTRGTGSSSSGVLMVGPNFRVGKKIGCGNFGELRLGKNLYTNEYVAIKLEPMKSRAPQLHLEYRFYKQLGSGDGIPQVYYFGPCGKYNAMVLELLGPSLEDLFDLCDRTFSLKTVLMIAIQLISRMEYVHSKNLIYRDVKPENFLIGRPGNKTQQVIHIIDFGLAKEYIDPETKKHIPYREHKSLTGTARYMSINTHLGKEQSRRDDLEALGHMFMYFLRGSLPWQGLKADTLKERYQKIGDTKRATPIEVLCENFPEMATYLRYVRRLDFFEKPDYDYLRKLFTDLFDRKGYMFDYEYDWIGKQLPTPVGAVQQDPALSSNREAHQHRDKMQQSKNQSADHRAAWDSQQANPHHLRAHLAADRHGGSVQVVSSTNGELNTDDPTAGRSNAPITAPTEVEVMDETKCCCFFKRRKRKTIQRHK

The molecule `O=C(NOC[C@H](O)CO)c1ccc(F)c(F)c1Nc1ccc(I)cc1F` displayed a % of control in test [1] of 91%.
Regarding `CNC(=O)Nc1ccc(-c2nc(N3CC4CCC(C3)O4)c3cnn(C4CCC5(CC4)OCCO5)c3n2)cc1`, in test [2], the % of inhibition was -2%.
On to `C=CC(=O)Nc1cc(-n2c(=O)ccc3cnc4ccc(-c5ccc(NS(C)(=O)=O)cc5)cc4c32)ccc1C`, for which the results for the % of control in test [3] (at 1 µM) and in test [3] (at 10 µM) were 69% and 50%, respectively.
`COc1cc(Nc2nc(C)cc(-c3cnn4nc(OC)ccc34)n2)cc(C(F)(F)F)c1`: the % of control in test [4] is 100%; in test [5], 96%.
Molecule `COc1cc(N(C)c2ccnc3ccc(C(F)(F)F)cc23)cc(OC)c1OC` gave a % binding in test [6] of 86%.
